Reference: patent publication US11370796B2, “Substituted pyrazoles as LRRK2 inhibitors” (OSCOTEC INC., priority 2017, dated 2022)

target: LRRK2 (leucine-rich repeat kinase 2) (Homo sapiens (Human), UniProt Q5S007); assay: Inhibitory effect on LRRK2 in vitro (LANCE kinase assay); format: biochemical; settings: Table 1, class symbols; read-out: LRRK2 inhibition rate (IC50)
Procedure: The inhibitory effect of Compounds 1 to 62 on LRRK2 (leucine-rich repeat kinase 2) in vitro was measured. In the analysis of the results, IC50 values were calculated for a quantitative comparison of the in vitro activity.
After the compound was dissolved in 100% DMSO at 10 mM, it was serially diluted to the range of 1 μM to 10 μM using biochemical LRRK2 assay buffer (50 mM HEPES (4-(2-hydroxyethyl)-1-piperazineethanesulfonic acid) pH 7.5, 10 mM MgCl2, 1 mM EGTA (1,2-bis(o-aminophenoxy)ethane-N,N,N′,N′-tetraacetic acid), 2 mM DTT (dithiothreitol), and 0.01% TWEEN-20 (Aldrich)). Purified LRRK2 (CARNA BIOSCIENCES) was added to a black U-bottom 96-well microtiter plate containing 6 μl of the serially diluted compound, followed by incubation at room temperature for 30 minutes. For the kinase reaction, ATP and a substrate solution specific urea-polypeptide (ULIGHT™-poly TK, PerkinElimer) were added. The reaction was carried out at room temperature for 1 hour, and it was detected with an detection solution (brand name: LANCE™) containing EDTA. A LANCE detection solution containing europium-labeled antibody ([…] PT66) was added, followed by incubation at room temperature for 50 minutes, to terminate the kinase experiment. The phosphorylated substrate was detected by 665 nm emission measurement. IC50 values were calculated by a non-linear regression analysis using a Prism program (PRISM™ software) with reference to the absence of a kinase inhibitor.
As a comparative assay, a compound LRR2-IN-1, that known to be a reference compound for LRRK2 inhibitor, have also tested an inhibitory activity.

Sequence of LRRK2 (leucine-rich repeat kinase 2) (Q5S007 whole entry): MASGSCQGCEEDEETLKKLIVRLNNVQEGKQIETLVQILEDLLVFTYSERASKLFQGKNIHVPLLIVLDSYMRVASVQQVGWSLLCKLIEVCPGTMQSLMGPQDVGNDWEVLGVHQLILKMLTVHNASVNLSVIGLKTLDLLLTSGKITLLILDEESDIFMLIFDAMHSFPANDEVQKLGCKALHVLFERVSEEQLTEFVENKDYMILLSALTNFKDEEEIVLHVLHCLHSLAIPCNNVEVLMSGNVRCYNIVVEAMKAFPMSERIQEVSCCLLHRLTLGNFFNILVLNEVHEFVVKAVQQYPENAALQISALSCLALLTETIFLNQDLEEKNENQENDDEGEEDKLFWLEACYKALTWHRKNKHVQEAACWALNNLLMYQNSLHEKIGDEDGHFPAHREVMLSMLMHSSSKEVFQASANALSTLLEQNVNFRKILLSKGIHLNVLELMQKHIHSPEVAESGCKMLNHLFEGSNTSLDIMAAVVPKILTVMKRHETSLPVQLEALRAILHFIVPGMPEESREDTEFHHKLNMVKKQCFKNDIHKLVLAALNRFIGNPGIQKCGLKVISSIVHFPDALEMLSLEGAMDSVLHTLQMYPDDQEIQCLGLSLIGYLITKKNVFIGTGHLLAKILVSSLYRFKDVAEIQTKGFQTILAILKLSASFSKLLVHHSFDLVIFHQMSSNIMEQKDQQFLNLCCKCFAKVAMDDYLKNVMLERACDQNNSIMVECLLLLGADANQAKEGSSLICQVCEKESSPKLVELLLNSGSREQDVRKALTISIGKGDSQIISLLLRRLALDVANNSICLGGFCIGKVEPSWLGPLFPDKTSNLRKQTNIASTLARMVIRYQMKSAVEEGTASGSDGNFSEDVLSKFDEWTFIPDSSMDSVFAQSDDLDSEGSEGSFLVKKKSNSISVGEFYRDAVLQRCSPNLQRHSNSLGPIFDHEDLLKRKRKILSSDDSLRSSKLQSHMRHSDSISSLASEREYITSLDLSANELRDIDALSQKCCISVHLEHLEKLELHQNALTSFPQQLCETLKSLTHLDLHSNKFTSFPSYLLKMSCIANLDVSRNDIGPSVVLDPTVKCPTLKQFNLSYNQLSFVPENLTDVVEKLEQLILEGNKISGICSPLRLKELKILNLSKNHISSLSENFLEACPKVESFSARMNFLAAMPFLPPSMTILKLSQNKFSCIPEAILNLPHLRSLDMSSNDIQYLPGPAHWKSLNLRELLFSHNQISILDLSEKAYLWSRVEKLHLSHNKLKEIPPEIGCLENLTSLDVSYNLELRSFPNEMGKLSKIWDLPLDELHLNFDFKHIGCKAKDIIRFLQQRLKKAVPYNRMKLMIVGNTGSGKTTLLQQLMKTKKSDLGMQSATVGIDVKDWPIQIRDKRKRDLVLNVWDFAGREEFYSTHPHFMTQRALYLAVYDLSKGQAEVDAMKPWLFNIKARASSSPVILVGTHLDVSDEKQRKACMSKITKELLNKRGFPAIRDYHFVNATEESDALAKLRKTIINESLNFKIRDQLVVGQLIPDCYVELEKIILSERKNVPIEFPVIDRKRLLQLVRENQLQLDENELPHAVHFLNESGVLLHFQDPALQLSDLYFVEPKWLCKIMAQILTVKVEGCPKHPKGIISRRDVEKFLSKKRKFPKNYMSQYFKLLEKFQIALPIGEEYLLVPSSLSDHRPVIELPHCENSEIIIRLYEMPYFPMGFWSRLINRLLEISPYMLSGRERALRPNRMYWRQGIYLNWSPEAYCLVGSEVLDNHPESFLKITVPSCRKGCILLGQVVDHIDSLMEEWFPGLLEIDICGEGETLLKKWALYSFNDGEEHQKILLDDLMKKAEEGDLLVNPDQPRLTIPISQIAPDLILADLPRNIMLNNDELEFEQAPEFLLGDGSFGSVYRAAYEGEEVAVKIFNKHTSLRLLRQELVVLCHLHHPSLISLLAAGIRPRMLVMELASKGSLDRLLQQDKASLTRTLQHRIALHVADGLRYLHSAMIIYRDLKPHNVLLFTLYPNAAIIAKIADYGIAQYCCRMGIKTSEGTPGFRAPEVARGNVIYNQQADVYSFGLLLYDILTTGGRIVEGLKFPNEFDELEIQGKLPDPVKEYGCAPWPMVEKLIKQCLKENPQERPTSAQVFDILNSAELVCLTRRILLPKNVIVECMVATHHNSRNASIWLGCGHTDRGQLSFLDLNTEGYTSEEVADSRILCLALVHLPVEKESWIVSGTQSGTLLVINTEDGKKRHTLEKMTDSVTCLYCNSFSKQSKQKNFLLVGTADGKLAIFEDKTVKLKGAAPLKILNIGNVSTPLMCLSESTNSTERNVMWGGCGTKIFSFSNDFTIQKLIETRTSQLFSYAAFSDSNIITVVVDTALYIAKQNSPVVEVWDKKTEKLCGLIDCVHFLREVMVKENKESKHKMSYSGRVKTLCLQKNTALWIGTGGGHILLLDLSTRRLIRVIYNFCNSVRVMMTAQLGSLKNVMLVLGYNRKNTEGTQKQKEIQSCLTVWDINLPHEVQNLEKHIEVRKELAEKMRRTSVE

Row | Structure (SMILES) | IC50
1 | Cn1ncc(Nc2ncc3c(C(F)(F)F)cn(C)c3n2)c1Cl [Compound 1, N-(5-chloro-1-methyl-1H-pyrazol-4-yl)-7-methyl-5-(trifluoromethyl)-7H-pyrrolo[2,3-d]pyrimidin-2-amine] | 0.1 to 1 µM
2 | Cn1cc(Cl)c2cnc(Nc3cn(C4CCOCC4)nc3C(F)(F)F)nc21 [Compound 4, 5-chloro-7-methyl-N-(1-(tetrahydro-2H-pyran-4-yl)-3-(trifluoromethyl)-1H-pyrazol-4-yl)-7H-pyrrolo[2,3-d]pyrimidin-2-amine] | 0.1 to 1 µM
3 | CC(C)n1cc(Nc2ncc3c(Cl)cn(C)c3n2)c(C(F)(F)F)n1 [Compound 9, 5-chloro-N-(1-isopropyl-3-(trifluoromethyl)-1H-pyrazol-4-yl)-7-methyl-7H-pyrrolo[2,3-d]pyrimidin-2-amine] | 0.1 to 1 µM
4 | COCCn1cc(Nc2ncc3c(Cl)cn(C)c3n2)c(C(F)(F)F)n1 [Compound 10, 5-chloro-N-(1-(2-methoxyethyl)-3-(trifluoromethyl)-1H-pyrazol-4-yl)-7-methyl-7H-pyrrolo[2,3-d]pyrimidin-2-amine] | 0.1 to 1 µM
5 | CCCCn1cc(Nc2ncc3c(Cl)cn(C)c3n2)c(C(F)(F)F)n1 [Compound 11, N-(1-butyl-3-(trifluoromethyl)-1H-pyrazol-4-yl)-5-chloro-7-methyl-7H-pyrrolo[2,3-d]pyrimidin-2-amine] | 1 to 10 µM
6 | Clc1nn(C2CC2)cc1Nc1ncc2c(Cl)cn(C3CC3)c2n1 [Compound 15, 5-chloro-N-(3-chloro-1-cyclopropyl-1H-pyrazol-4-yl)-7-cyclopropyl-7H-pyrrolo[2,3-d]pyrimidin-2-amine] | 0.01 to 0.1 µM
7 | CCn1cc(Cl)c2cnc(Nc3cnn(C4COC4)c3Cl)nc21 [Compound 16, 5-chloro-N-(5-chloro-1-(oxetan-3-yl)-1H-pyrazol-4-yl)-7-ethyl-7H-pyrrolo[2,3-d]pyrimidin-2-amine] | 0.01 to 0.1 µM
8 | CCn1cc(Cl)c2cnc(Nc3cn(C4CCN(C)CC4)nc3Cl)nc21 [Compound 17, 5-chloro-N-(3-chloro-1-(1-methylpiperidin-4-yl)-1H-pyrazol-4-yl)-7-ethyl-7H-pyrrolo[2,3-d]pyrimidin-2-amine] | 0.01 to 0.1 µM
9 | CCn1cc(Cl)c2cnc(Nc3cn(C4CCOCC4)nc3Cl)nc21 [Compound 18, 5-chloro-N-(3-chloro-1-(tetrahydro-2H-pyran-4-yl)-1H-pyrazol-4-yl)-7-ethyl-7H-pyrrolo[2,3-d]pyrimidin-2-amine] | 0.01 to 0.1 µM
10 | CCn1cc(Cl)c2cnc(Nc3cn(C4CC(C)OC(C)C4)nc3Cl)nc21 (stereo not shown) [Compound 19, 5-chloro-N-(3-chloro-1-(2,6-dimethyltetrahydro-2H-pyran-4-yl)-1H-pyrazol-4-yl)-7-ethyl-7H-pyrrolo[2,3-d]pyrimidin-2-amine] | 0.01 to 0.1 µM
11 | CCN1CCC(n2cc(Nc3ncc4c(Cl)cn(CC)c4n3)c(Cl)n2)CC1 [Compound 20, 5-chloro-N-(3-chloro-1-(1-ethylpiperidin-4-yl)-1H-pyrazol-4-yl)-7-ethyl-7H-pyrrolo[2,3-d]pyrimidin-2-amine] | 0.01 to 0.1 µM
12 | CCn1cc(Cl)c2cnc(Nc3cn(-c4ccc(F)cc4)nc3Cl)nc21 [Compound 21, 5-chloro-N-(3-chloro-1-(4-fluorophenyl)-1H-pyrazol-4-yl)-7-ethyl-7H-pyrrolo[2,3-d]pyrimidin-2-amine] | 0.1 to 1 µM
13 | CCn1cc(Cl)c2cnc(Nc3cnn(-c4ccc(Cl)cc4)c3Cl)nc21 [Compound 22, 5-chloro-N-(5-chloro-1-(4-chlorophenyl)-1H-pyrazol-4-yl)-7-ethyl-7H-pyrrolo[2,3-d]pyrimidin-2-amine] | 0.1 to 1 µM
14 | CC(=O)N1CCC(n2ncc(Nc3ncc4c(Cl)cn(C)c4n3)c2Cl)CC1 [Compound 23, 1-(4-(5-chloro-4-(5-chloro-7-methyl-7H-pyrrolo[2,3-d]pyrimidin-2-ylamino)-1H-pyrazol-1-yl)piperidin-1-yl)ethanone] | 0.01 to 0.1 µM
15 | CCn1cc(Cl)c2cnc(Nc3cn(C4CCN(C(=O)C5CC5)CC4)nc3Cl)nc21 [Compound 24, (4-(3-chloro-4-(5-chloro-7-ethyl-7H-pyrrolo[2,3-d]pyrimidin-2-ylamino)-1H-pyrazol-1-yl)piperidin-1-yl)(cyclopropyl)methanone] | 0.01 to 0.1 µM
16 | CCn1cc(Cl)c2cnc(Nc3cn(C4CCN(C(=O)C(C)C)CC4)nc3Cl)nc21 [Compound 26, 1-(4-(3-chloro-4-(5-chloro-7-ethyl-7H-pyrrolo[2,3-d]pyrimidin-2-ylamino)-1H-pyrazol-1-yl)piperidin-1-yl)-2-methylpropane-1-one] | 0.01 to 0.1 µM
17 | Cn1cc(Cl)c2cnc(Nc3cnn(C4CCN(C5COC5)CC4)c3Cl)nc21 [Compound 27, 5-chloro-N-(5-chloro-1-(1-(oxetan-3-yl)piperidin-4-yl)-1H-pyrazol-4-yl)-7-methyl-7H-pyrrolo[2,3-d]pyrimidin-2-amine] | 0.01 to 0.1 µM
18 | Clc1cn(C2CC2)c2nc(Nc3cnn(C4CCN(C5COC5)CC4)c3Cl)ncc12 [Compound 29, 5-chloro-N-(5-chloro-1-(1-(oxetan-3-yl)piperidin-4-yl)-1H-pyrazol-4-yl)-7-cyclopropyl-7H-pyrrolo[2,3-d]pyrimidin-2-amine] | 0.01 to 0.1 µM

The remaining lines, values ahead:

Row | IC50 | Structure (SMILES)
19 | 0.01 to 0.1 µM | COc1nn(C(C)C)cc1Nc1ncc2c(Cl)cn(C)c2n1 [Compound 2, 5-chloro-N-(1-isopropyl-3-methoxy-1H-pyrazol-4-yl)-7-methyl-7H-pyrrolo[2,3-d]pyrimidin-2-amine]
20 | 0.01 to 0.1 µM | CC(C)n1cc(Nc2ncc3c(Cl)cn(C)c3n2)c(Cl)n1 [Compound 3, 5-chloro-N-(3-chloro-1-isopropyl-1H-pyrazol-4-yl)-7-methyl-7H-pyrrolo[2,3-d]pyrimidin-2-amine]
21 | 0.01 to 0.1 µM | Cn1ncc(Nc2ncc3c(Cl)cn(C)c3n2)c1Cl [Compound 5, 5-chloro-N-(5-chloro-1-methyl-1H-pyrazol-4-yl)-7-methyl-7H-pyrrolo[2,3-d]pyrimidin-2-amine]
22 | 0.01 to 0.1 µM | CCn1cc(Cl)c2cnc(Nc3cnn(C)c3Cl)nc21 [Compound 6, 5-chloro-N-(5-chloro-1-methyl-1H-pyrazol-4-yl)-7-ethyl-7H-pyrrolo[2,3-d]pyrimidin-2-amine]
23 | 0.01 to 0.1 µM | CC(C)n1cc(Nc2ncc3c(Cl)cn(C(C)C)c3n2)c(Cl)n1 [Compound 7, 5-chloro-N-(3-chloro-1-isopropyl-1H-pyrazol-4-yl)-7-isopropyl-7H-pyrrolo[2,3-d]pyrimidin-2-amine]
24 | 0.01 to 0.1 µM | CCn1cc(Cl)c2cnc(Nc3cn(C(C)C)nc3Cl)nc21 [Compound 8, 5-chloro-N-(3-chloro-1-isopropyl-1H-pyrazol-4-yl)-7-ethyl-7H-pyrrolo[2,3-d]pyrimidin-2-amine]
25 | 0.01 to 0.1 µM | CCn1cc(Cl)c2cnc(Nc3cn(CCOC)nc3Cl)nc21 [Compound 12, 5-chloro-N-(3-chloro-1-(2-methoxyethyl)-1H-pyrazol-4-yl)-7-ethyl-7H-pyrrolo[2,3-d]pyrimidin-2-amine]
26 | 0.01 to 0.1 µM | CCn1cc(Cl)c2cnc(Nc3cn(CC4CC4)nc3Cl)nc21 [Compound 13, 5-chloro-N-(3-chloro-1-(cyclopropylmethyl)-1H-pyrazol-4-yl)-7-ethyl-7H-pyrrolo[2,3-d]pyrimidin-2-amine]
27 | 0.01 to 0.1 µM | CCn1cc(Cl)c2cnc(Nc3cn(C4CC4)nc3Cl)nc21 [Compound 14, 5-chloro-N-(3-chloro-1-cyclopropyl-1H-pyrazol-4-yl)-7-ethyl-7H-pyrrolo[2,3-d]pyrimidin-2-amine]
28 | < 0.01 µM | CCn1cc(Cl)c2cnc(Nc3cn(C4CCN(S(C)(=O)=O)CC4)nc3Cl)nc21 [Compound 25, 5-chloro-N-(3-chloro-1-(1-(methylsulfonyl)piperidin-4-yl)-1H-pyrazol-4-yl)-7-ethyl-7H-pyrrolo[2,3-d]pyrimidin-2-amine]
29 | < 0.01 µM | CCn1cc(Cl)c2cnc(Nc3cnn(C4CCN(C5COC5)CC4)c3Cl)nc21 [Compound 28, 5-chloro-N-(5-chloro-1-(1-(oxetan-3-yl)piperidin-4-yl)-1H-pyrazol-4-yl)-7-ethyl-7H-pyrrolo[2,3-d]pyrimidin-2-amine]
30 | < 0.01 µM | CS(=O)(=O)N1CCC(n2cc(Nc3ncc4c(Cl)cn(C5CC5)c4n3)c(Cl)n2)CC1 [Compound 30, 5-chloro-N-(3-chloro-1-(1-(methylsulfonyl)piperidin-4-yl)-1H-pyrazol-4-yl)-7-cyclopropyl-7H-pyrrolo[2,3-d]pyrimidin-2-amine]
31 | < 0.01 µM | CCn1cc(Cl)c2cnc(Nc3cn(C4CCN(C(=O)N5CCOCC5)CC4)nc3Cl)nc21 [Compound 31, (4-(3-chloro-4-(5-chloro-7-ethyl-7H-pyrrolo[2,3-d]pyrimidin-2-ylamino)-1H-pyrazol-1-yl)piperidin-1-yl)(morpholino)methanone]
32 | < 0.01 µM | CCn1cc(Cl)c2cnc(Nc3cn(C4CCN(C(=O)N5CCN(C)CC5)CC4)nc3Cl)nc21 [Compound 32, (4-(3-chloro-4-(5-chloro-7-ethyl-7H-pyrrolo[2,3-d]pyrimidin-2-ylamino)-1H-pyrazol-1-yl)piperidin-1-yl)(4-methylpiperazin-1-yl)methanone]

same assay, conditions: purified LRRK2, Table 6; read-out: IC50

Row | Structure (SMILES) | IC50
33 | CCn1cc(Cl)c2cnc(Nc3cn(C4CCN(S(C)(=O)=O)CC4)nc3Cl)nc21 [Compound 25, 5-chloro-N-(3-chloro-1-(1-(methylsulfonyl)piperidin-4-yl)-1H-pyrazol-4-yl)-7-ethyl-7H-pyrrolo[2,3-d]pyrimidin-2-amine] | 0.00667 µM
34 | CCn1cc(Cl)c2cnc(Nc3cnn(C4CCN(C5COC5)CC4)c3Cl)nc21 [Compound 28, 5-chloro-N-(5-chloro-1-(1-(oxetan-3-yl)piperidin-4-yl)-1H-pyrazol-4-yl)-7-ethyl-7H-pyrrolo[2,3-d]pyrimidin-2-amine] | 0.0065 µM
35 | CS(=O)(=O)N1CCC(n2cc(Nc3ncc4c(Cl)cn(C5CC5)c4n3)c(Cl)n2)CC1 [Compound 30, 5-chloro-N-(3-chloro-1-(1-(methylsulfonyl)piperidin-4-yl)-1H-pyrazol-4-yl)-7-cyclopropyl-7H-pyrrolo[2,3-d]pyrimidin-2-amine] | 0.00202 µM
36 | CCn1cc(Cl)c2cnc(Nc3cn(C4CCN(C(=O)N5CCOCC5)CC4)nc3Cl)nc21 [Compound 31, (4-(3-chloro-4-(5-chloro-7-ethyl-7H-pyrrolo[2,3-d]pyrimidin-2-ylamino)-1H-pyrazol-1-yl)piperidin-1-yl)(morpholino)methanone] | 0.00466 µM
37 | CCn1cc(Cl)c2cnc(Nc3cn(C4CCN(C(=O)N5CCN(C)CC5)CC4)nc3Cl)nc21 [Compound 32, (4-(3-chloro-4-(5-chloro-7-ethyl-7H-pyrrolo[2,3-d]pyrimidin-2-ylamino)-1H-pyrazol-1-yl)piperidin-1-yl)(4-methylpiperazin-1-yl)methanone] | 0.0025 µM
